Test results taken from PubChem BioAssay (NCI).
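Five compound concentrations were applied to cells in 96-well plates for 48 hours; endpoints were derived by simple linear interpolation of the resulting dose-response curve. TGI is the concentration that stops growth completely.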

Legend:
Assay in all cases: inhibition of tumour cell growth, NCI panel, 48 h
A549 NSCLC = tested on: A549 NSCLC
HOP-92 NSCLC = tested on: HOP-92 NSCLC
HT29 colon = tested on: HT29 colon
K-562 leukemia = tested on: K-562 leukemia
MALME-3M melanoma = tested on: MALME-3M melanoma
NCI-H23 lung = tested on: NCI-H23 lung
PC-3 prostate = tested on: PC-3 prostate
RXF 393 renal = tested on: RXF 393 renal
SK-OV-3 ovarian = tested on: SK-OV-3 ovarian
SW-620 colon = tested on: SW-620 colon

## NC1=CN2c3ccccc3N(CC(=O)N3CCOCC3)C2C=C1 (stereo not given)
A549 NSCLC
  TGI: > 100 µM
HOP-92 NSCLC
  TGI: > 100 µM
HT29 colon
  TGI: > 100 µM
K-562 leukemia
  TGI: > 100 µM
MALME-3M melanoma
  TGI: > 100 µM
NCI-H23 lung
  TGI: > 100 µM
PC-3 prostate
  TGI: > 100 µM
RXF 393 renal
  TGI: > 100 µM
SK-OV-3 ovarian
  TGI: > 100 µM
SW-620 colon
  TGI: > 100 µM

## Oc1cccc(-c2cc(=S)ss2)c1
A549 NSCLC
  TGI: 44.5 µM
HOP-92 NSCLC
  TGI: 28.5 µM
HT29 colon
  TGI: 55.3 µM
K-562 leukemia
  TGI: 60.6 µM
MALME-3M melanoma
  TGI: 32.5 µM
NCI-H23 lung
  TGI: 23.1 µM
PC-3 prostate
  TGI: 28.3 µM
RXF 393 renal
  TGI: 40.5 µM
SK-OV-3 ovarian
  TGI: 37.7 µM
SW-620 colon
  TGI: 44.3 µM
